Literature values as cited in patent US11122828B2, “Microbial compositions comprising ellagitannin and methods of use” (MarvelBiome, Inc., priority 2018, dated 2021).
Where two headings read alike, the source gives them in different places.

Columns and labels:
[1] = test system: colon cancer cells; conditions: in vitro
[2] = test system: inflammatory markers including inducible nitric oxide synthase, cycloxygenase-2 (COX-2), prostaglandin E synthase and prostaglandin E2; conditions: rat colitis model
[3] = plasma concentration up to micromolar (μM) levels

O=c1oc2cc(O)ccc2c2ccc(O)cc12 [urolithin A, 3,8-dihydroxyurolithin]
proliferation of colon cancer cells [1]: inhibit proliferation
inflammatory markers in colonic mucosa [2]: decrease inflammatory markers
toxic effects in vivo [3]: without any apparent toxic effects

anthocyanins
bioavailability (in vivo): 0.3%

isoflavones
bioavailability (estimated, phenols): 43%
